Results from US20140235542A1, “MODULAR, BIOACTIVE PEPTIDES FOR BINDING NATIVE BONE AND IMPROVING BONE GRAFT OSTEOINDUCTIVITY” (WISCONSIN ALUMNI RESEARCH FOUNDATION, priority 2013, published 2014).
Square brackets hold non-standard residues; d marks the D form. Ends that are not written are not given here. Gla = N[C@@H](CC(C(=O)O)C(=O)O)C(=O)O

Assays:
[1] = Binding of 5(6)-FAM-conjugated modular peptides to HA-coated PLG films; settings: 500 μg (1 mg/ml) 5(6)-FAM-conjugated peptide in PBS, 4 hr, 37° C., constant agitation
Method: Poly (lactide-coglycolide) (PLG) films were prepared via a solvent casting process in which PLG (85:15) pellets were dissolved in chloroform (50 mg/ml), added to a PTFE dish, and dried for 2 days. The films were further dried at 50-55° C. for 4 hr to remove residual solvent and samples were cooled to room temperature. Square films (1 cm^2) were manually cut out of the resulting PLG film sheets. A “bone-like” HA-based material layer was grown on the PLG films using a direct deposition technique by biomimetic mineralization in modified simulated body fluid (mSBF).
To measure the binding efficiency of modular peptides to the HA-coated PLG films and to gain preliminary insight into the properties that influence modular peptide immobilization, 1 cm^2 HA-coated PLG films was first exposed to PBS solutions containing 500 μg (1 mg/ml) of 5(6) FAM-conjugated eBMP-2, eBGu1, eBGu3, eBGa1, or eBGa3 modular peptide solution (See Table 1 for definitions of these abbreviations). The films were incubated in peptide solutions with constant agitation for 4 hr at 37° C., and the amount of free peptide remaining was determined by measuring the fluorescence emission of the solution (excitation: 494 nm; emission 519 nm) using a Synergy HT Multi-Detection Microplate Reader (BioTek, Winooski, Vt.), and comparing this emission to standard samples with known concentrations of 5(6)-FAM. To further characterize surface immobilization of the peptide with the highest binding efficiency—the eBGa3 peptide-1 cm^2 HA-coated films were incubated in various concentrations (50-750 nM) of 5(6)-FAM-conjugated eBGa3 peptide for 4 hr with constant agitation at 37° C. The amount of peptide bound to HA-coated film was again determined by fluorescence analysis, as described above.

[2] = Release kinetics of modular peptides from HA-coated film; settings: after 5 days, PBS, 37° C.
Method: To quantify release kinetics of 5(6) FAM-conjugated modular peptides from HA-coated film, the films were first incubated in solutions containing 250 μM (˜500 μg) of each peptide (eBGu1, eBGu3, eBGa1, or eBGa3) to allow for binding (as described above), then incubated in 500 μl of PBS buffer at 37° C. with constant agitation for 5 days (eBGu1 and eBGu3 peptides) or 10 weeks (eBGa1 and eBGa3 peptides), respectively. Whole buffer solutions were changed at indicated time points and the amount of peptide released from the HA-coated film was determined via fluorescence analysis and comparison with standards containing known amounts of 5(6)-FAM. The fluorescent images of fluorescently-labeled peptides bound to HA-coated films were obtained using an Olympus IX51 fluorescence microscope (Olympus, Center Valley, Pa.).

[3] = Binding of VEGF peptides to HA particles / HA slab
Method: The binding behavior of the peptides (both modular peptide, VEGF-OCN (SEQ ID NO:18), and VEGF-mimic) were analyzed and compared as described above. The amount of bound VEGF-OCN on the HA particle increased with peptide concentration and reached saturation at 15 μM (FIG. 8A).

[4] = Binding of rhodamine-labeled peptide to cortical bone; parameters: species or system sheep
Method: The native bone used were harvested from sheep tibia and bovine sternum. Cortical (compact) bone slices were collected from sheep tibia with periosteum removed, and trabecular (cancellous, spongy) bone cores were drilled out from bovine sternum under sterile conditions.
The peptide binding to native bones was tested in three different experiments. In the first experiment, the cortical bone slices were incubated in modular peptide solution (0.5 mL, PBS) with concentrations of 50, 100, 200 and 300 μg/mL. The incubation was continued in a static condition for a period of 0.5, 1, 2 and 3 hours. For another experiment, the trabecular bone cores were placed in the chamber of bone bioreactor where the peptide solution prepared in DMEM (100 μg/mL, 6.5 mL) was continuously circulated through the chamber for a time period of 2, 4, 6, 8 and 10 hours. In the last experiment, mBMP was bound in a spatially controlled manner by dip-coating, spotting or writing with mBMP solution on native bone tissues. Following each experiment, the bones were rinsed with PBS to remove unbound peptide and their fluorescence images were captured using a Typhoon fluorescence scanner (GE healthcare) or a Nikon Eclipse Ti inverted microscope. To quantify the fluorescence intensity, the images were converted into 8-bit using ImageJ to present the intensity level of each pixel in the range of 0 to 255. The mean pixel intensity of a selected region of interest was considered to be proportional to the amount of peptide bound.
To examine mBMP binding to cortical bone without periosteum (ca. 4 mm×7 mm×1.5 mm) from the shaft of sheep tibia, the bone tissue was incubated in mBMP solution prepared in phosphate buffered saline (PBS). The binding of mBMP was concentration-dependent for each incubation time tested (FIGS. 12 and 13A). The quantity of mBMP binding was proportional to the solution concentration, which was clearly observed through all concentrations at 0.5 hour. However, this dependence was not apparent at higher concentrations at later time points. […] The insignificant dependence on the incubation time is likely attributed to the rapid binding of mBMP to native bone tissue.

[5] = system: mouse yolk sac endothelial C166-GFP cells; test: C166-GFP cell proliferation on peptide-treated HA slabs (CYQUANT); type: cell-based; settings: 2-day culture on HA slab incubated in peptide solution
Method: Cells were again seeded at a density of 2×10^4 cells/cm^2 (4×10^4 cells per well) in 24-well plate. Prior to seeding, HA slabs (1 cm×1 cm) were incubated in peptide solution (PBS) for four hours at 37° C. and copiously rinsed with deionized water, and then placed in a well of the 24-well plate. After 1-day culture, cells were treated with 2 μM calcein AM solution, and imaged using Olympus IX-51 microscope.
Additionally, a cell number count of the C166-GFP cells as cultured in the presence of VEGF-OCN or VEGF mimic was determined For the cell count, cells were seeded at a density of 5×10^3 cells/cm^2 (1×10^4 cells per well) in a 24-well plate. After 2-day culture, cells were detached from the HA slab and cell number was assessed using CYQUANT assay.

binding efficiency on the HA-coated PLG films [1] [%]	Substance	peptide released from HA-coated films [2] [%]	further results
10.3±4.7	KIPKASSVPTELSAIATLYLAAAAEPRRAVAAL [eBGu1, modular BMP-2/OCN peptide with one Glu residue]	98.89±18.84	
	KLTWQELYQLKYKGI [VEGF-mimic, VEGF helical region mimic first synthesized by Pedon, et al, reference compound]		amount of peptide bound to HA slab ([3]; HA slab, qualitative comparison): much less than that of VEGF-OCN
7.6±7.8	KIPKASSVPTELSAISTLYLAAAAEPRREVAEL [eBGu3, modular BMP-2/OCN peptide with Glu in place of Gla at three positions]	93.33±17.24	dependence of binding to cortical bone on concentration and incubation time ([4]; 50-300 μg/mL in PBS, 0.5-3 hours): independent of incubation time and peptide concentration; amount of peptide bound to cortical bone ([4]; each experimental condition tested): significantly less than that of mBMP
	KLTWQELYQLKYKGI-GGGAAAA-γEPRRγEVAγEL (KLTWQELYQLKYKGIGGGAAAA[Gla]PRR[Gla]VA[Gla]L) [VEGF-OCN]		peptide concentration at which bound amount on HA particle reached saturation ([3]; HA particles): 15 µM; effect of peptide-treated HA slab on cell number [5]: promoted cell proliferation

Substance	binding efficiency on the HA-coated PLG films [1] [%]	peptide released from HA-coated films [2] [%]	further results
KIPKASSVPTELSAISTLYLAAAAγEPRRAVAAL (KIPKASSVPTELSAISTLYLAAAA[Gla]PRRAVAAL-NH2; N-terminus assumed; SMILES CC[C@H](C)[C@H](NC(=O)[C@H](C)NC(=O)[C@H](CO)NC(=O)[C@H](CC(C)C)NC(=O)[C@H](CCC(=O)O)NC(=O)[C@@H](NC(=O)[C@@H]1CCCN1C(=O)[C@@H](NC(=O)[C@H](CO)NC(=O)[C@H](CO)NC(=O)[C@H](C)NC(=O)[C@H](CCCCN)NC(=O)[C@@H]1CCCN1C(=O)[C@@H](NC(=O)[C@@H](N)CCCCN)[C@@H](C)CC)C(C)C)[C@@H](C)O)C(=O)N[C@@H](CO)C(=O)N[C@H](C(=O)N[C@@H](CC(C)C)C(=O)N[C@@H](Cc1ccc(O)cc1)C(=O)N[C@@H](CC(C)C)C(=O)N[C@@H](C)C(=O)N[C@@H](C)C(=O)N[C@@H](C)C(=O)N[C@@H](C)C(=O)N[C@@H](CC(C(=O)O)C(=O)O)C(=O)N1CCC[C@H]1C(=O)N[C@@H](CCCNC(=N)N)C(=O)N[C@@H](CCCNC(=N)N)C(=O)N[C@@H](C)C(=O)N[C@H](C(=O)N[C@@H](C)C(=O)N[C@@H](C)C(=O)N[C@@H](CC(C)C)C(N)=O)C(C)C)[C@@H](C)O) [eBGa1, modular BMP-2/OCN peptide with one Gla residue]	29.9±2		
